According to ChEMBL document CHEMBL5537201, “Discovery of Unique Bis-Substituted Aromatic Amide Derivatives as Novel Highly Potent Antibiotics for Combating Methicillin-Resistant Staphylococcus aureus (MRSA)” (J Med Chem, 2024):
Converted amounts (≈) assume the structure as drawn. The source made the active and inactive calls. The calls are words filed in the database; no cut-off is given here.

Legend:
[1] = Cytotoxicity against HEK293 cells assessed as reduction in cell viability measured after 24 hrs by CCK-8 method; format: toxicity, cell-based; conditions: human
[2] = Selectivity index, ratio of IC50 for African green monkey Vero E6 cells to MIC for Staphylococcus aureus ATCC6538; format: toxicity; conditions: read-out: Selectivity Index
Staphylococcus aureus [3] = experiment: Bactericidal activity against Staphylococcus aureus ATCC6538 assessed as reduction in survival rate at 5 to 10 times MIC measured after 30 to 120 mins by colony counting method relative to control; format: functional; conditions: time 30-120 min
Staphylococcus aureus [4] = experiment: Antimicrobial activity against methicillin resistant Staphylococcus aureus clinical isolate MRS121 assessed as reduction in bacterial growth incubated for 24 hrs by two-fold broth dilution method; format: functional
Staphylococcus aureus [5] = experiment: Antimicrobial activity against Staphylococcus aureus N315 assessed as reduction in bacterial growth incubated for 24 hrs by two-fold broth dilution method; format: functional
Staphylococcus aureus [6] = experiment: Induction of drug resistance in Staphylococcus aureus ATCC6538 assessed as change in MIC measured after 10 passages; format: functional
[7] = Cytotoxicity against human HaCaT cells assessed as reduction in cell viability measured after 24 hrs by CCK-8 method; format: toxicity, cell-based
Staphylococcus aureus [8] = experiment: Antimicrobial activity against methicillin resistant Staphylococcus aureus clinical isolate MRS70 assessed as reduction in bacterial growth incubated for 24 hrs by two-fold broth dilution method; format: functional
[9] = Cytotoxicity against African green monkey Vero E6 cells assessed as reduction in cell viability measured after 24 hrs by CCK-8 method; format: toxicity, cell-based, Chlorocebus sabaeus, Vero C1008
Staphylococcus aureus [10] = experiment: Antimicrobial activity against methicillin resistant Staphylococcus aureus clinical isolate MRS273 assessed as reduction in bacterial growth incubated for 24 hrs by two-fold broth dilution method; format: functional
Staphylococcus aureus [11] = experiment: Antimicrobial activity against methicillin resistant Staphylococcus aureus clinical isolate MRS108 assessed as reduction in bacterial growth incubated for 24 hrs by two-fold broth dilution method; format: functional
Staphylococcus aureus [12] = experiment: Antimicrobial activity against methicillin resistant Staphylococcus aureus clinical isolate MRS153 assessed as reduction in bacterial growth incubated for 24 hrs by two-fold broth dilution method; format: functional
Staphylococcus aureus [13] = experiment: Antimicrobial activity against methicillin resistant Staphylococcus aureus clinical isolate MRS97 assessed as reduction in bacterial growth incubated for 24 hrs by two-fold broth dilution method; format: functional
Staphylococcus aureus [14] = experiment: Antimicrobial activity against methicillin resistant Staphylococcus aureus clinical isolate MRS23 assessed as reduction in bacterial growth incubated for 24 hrs by two-fold broth dilution method; format: functional
Staphylococcus aureus [15] = experiment: Antimicrobial activity against methicillin resistant Staphylococcus aureus clinical isolate MRS152 assessed as reduction in bacterial growth incubated for 24 hrs by two-fold broth dilution method; format: functional
Staphylococcus aureus [16] = experiment: Antimicrobial activity against methicillin resistant Staphylococcus aureus clinical isolate MRS1 assessed as reduction in bacterial growth incubated for 24 hrs by two-fold broth dilution method; format: functional
A549 = experiment: Cytotoxicity against human A549 cells assessed as reduction in cell viability measured after 24 hrs by CCK-8 method; format: functional, cell-based; conditions: A549, 24 h
Streptomyces albus = experiment: Antimicrobial activity against Streptomyces albus SHBC D11158 assessed as reduction in bacterial growth incubated for 24 hrs by two-fold broth dilution method; format: functional
[17] = Hemolytic activity in rabbit Red blood cell assessed as hemolysis incubated for 1 hr by two-fold microdilution method; format: toxicity, cell-based, Oryctolagus cuniculus, Erythrocyte; conditions: red blood cells (erythrocytes)
Staphylococcus aureus [18] = experiment: Antimicrobial activity against methicillin resistant Staphylococcus aureus clinical isolate MRS200 assessed as reduction in bacterial growth incubated for 24 hrs by two-fold broth dilution method; format: functional
Staphylococcus aureus [19] = experiment: Antimicrobial activity against methicillin resistant Staphylococcus aureus clinical isolate MRS84 assessed as reduction in bacterial growth incubated for 24 hrs by two-fold broth dilution method; format: functional
HeLa = experiment: Cytotoxicity against human HeLa cells assessed as reduction in cell viability measured after 24 hrs by CCK-8 method; format: functional, cell-based
Staphylococcus hominis [20] = experiment: Antimicrobial activity against methicillin-resistant Staphylococcus hominis assessed as reduction in bacterial growth incubated for 24 hrs by two-fold broth dilution method; format: functional
[21] = Selectivity index, ratio of HC50 for rabbit Red blood cell to MIC for Staphylococcus aureus ATCC6538; format: toxicity; conditions: red blood cells (erythrocytes), read-out: Selectivity Index
Staphylococcus aureus [22] = experiment: Antimicrobial activity against methicillin resistant Staphylococcus aureus clinical isolate MRS207 assessed as reduction in bacterial growth incubated for 24 hrs by two-fold broth dilution method; format: functional
Staphylococcus aureus [23] = experiment: Antimicrobial activity against Staphylococcus aureus ATCC6538 assessed as reduction in bacterial growth incubated for 24 hrs by two-fold broth dilution method; format: functional
Cell membrane [24] = experiment: Disruption of cell membrane integrity in methicillin resistant Staphylococcus aureus clinical isolate MRS153 assessed as increase in fluorescence intensity measured upto 36 mins ethidium bromide uptake assay; format: cell membranes
Staphylococcus aureus [25] = experiment: Bactericidal activity against Staphylococcus aureus ATCC6538 at 5 ug/ml measured upto 150 mins; format: functional, organism-based; conditions: dose 5.0 µg/ml
Staphylococcus aureus [26] = experiment: Antimicrobial activity against vancomycin-resistant Staphylococcus aureus assessed as reduction in bacterial growth incubated for 24 hrs by two-fold broth dilution method; format: functional
Cell membrane [27] = experiment: Disruption of cell membrane integrity in Staphylococcus aureus ATCC6538 assessed as increase in fluorescence intensity measured upto 36 mins ethidium bromide uptake assay; format: cell membranes
Staphylococcus hominis [28] = experiment: Bactericidal activity against multidrug-resistant Staphylococcus hominis at 5 ug/ml measured upto 150 mins; format: functional, organism-based; conditions: dose 5.0 µg/ml
Staphylococcus aureus [29] = experiment: Bactericidal activity against Staphylococcus aureus ATCC6538 assessed as reduction in survival rate at 5 to 10 times MIC measured within 1 hr by colony counting method; format: functional, organism-based

| Structure (SMILES) | IC50 at 24 h [1] | selectivity ratio [2] | MIC (Staphylococcus aureus [4]) | MIC (Staphylococcus aureus [5]) | Activity (Staphylococcus aureus [6]) | IC50 at 24 h [7] | MIC (Staphylococcus aureus [8]) | IC50 at 24 h [9] | MIC (Staphylococcus aureus [10]) | MIC (Staphylococcus aureus [11]) | MIC (Staphylococcus aureus [12]) | MIC (Staphylococcus aureus [13]) | MIC (Staphylococcus aureus [14]) | MIC (Staphylococcus aureus [15]) | MIC (Staphylococcus aureus [16]) | IC50 (A549) | MIC (Streptomyces albus) | HC50 at 1 h [17] | MIC (Staphylococcus aureus [18]) | MIC (Staphylococcus hominis [20]) | also measured |
| --- | --- | --- | --- | --- | --- | --- | --- | --- | --- | --- | --- | --- | --- | --- | --- | --- | --- | --- | --- | --- | --- |
| O=C(CCC(F)(F)F)N(Cc1cc2ccccc2s1)c1cc(-c2ccccc2)ccc1O | 7.8 µg/mL (≈ 17.1 µM) | 22 | 3 µg/mL (≈ 6.59 µM) | 2 µg/mL (≈ 4.39 µM) | inactive | > 25 µg/mL | 3 µg/mL (≈ 6.59 µM) | 22.9 µg/mL (≈ 50.3 µM) | 3 µg/mL (≈ 6.59 µM) | 2 µg/mL (≈ 4.39 µM) | 3 µg/mL (≈ 6.59 µM) | 2 µg/mL (≈ 4.39 µM) | 3 µg/mL (≈ 6.59 µM) | 2 µg/mL (≈ 4.39 µM) | 3 µg/mL (≈ 6.59 µM) | 10.7 µg/mL (≈ 23.5 µM) | 4 µg/mL (≈ 8.78 µM) | 1770 µg/mL | 3 µg/mL (≈ 6.59 µM) | 6 µg/mL (≈ 13.2 µM) | Survival (Staphylococcus aureus [3]): <1%; MIC (Staphylococcus aureus [19]): 2 µg/mL (≈ 4.39 µM); IC50 (HeLa): > 25 µg/mL; selectivity ratio [21]: > 1000; MIC (Staphylococcus aureus [22]): 2 µg/mL (≈ 4.39 µM); MIC (Staphylococcus aureus [23]): 1 µg/mL (≈ 2.2 µM) |
| O=C(CCC(F)(F)F)N(Cc1cc2ccccc2s1)c1cc(-c2ccc(F)cc2)ccc1O | 20.7 µg/mL (≈ 43.8 µM) | 18 | 2 µg/mL (≈ 4.22 µM) | 1 µg/mL (≈ 2.11 µM) | inactive | 14.7 µg/mL (≈ 31 µM) | 6 µg/mL (≈ 12.7 µM) | 17.3 µg/mL (≈ 36.6 µM) | 2 µg/mL (≈ 4.22 µM) | 2 µg/mL (≈ 4.22 µM) | 2 µg/mL (≈ 4.22 µM) | 2 µg/mL (≈ 4.22 µM) | 2 µg/mL (≈ 4.22 µM) | 6 µg/mL (≈ 12.7 µM) | 6 µg/mL (≈ 12.7 µM) | 10 µg/mL (≈ 21.1 µM) | 16 µg/mL (≈ 33.8 µM) | 2150 µg/mL | 6 µg/mL (≈ 12.7 µM) | 8 µg/mL (≈ 16.9 µM) | Survival (Staphylococcus aureus [3]): <1%; MIC (Staphylococcus aureus [19]): 2 µg/mL (≈ 4.22 µM); IC50 (HeLa): 16.7 µg/mL (≈ 35.3 µM); selectivity ratio [21]: > 1000; MIC (Staphylococcus aureus [22]): 3 µg/mL (≈ 6.34 µM); MIC (Staphylococcus aureus [23]): 1 µg/mL (≈ 2.11 µM) |
| CN[C@H](CC(C)C)C(=O)N[C@H]1C(=O)N[C@@H](CC(N)=O)C(=O)N[C@H]2C(=O)N[C@H]3C(=O)N[C@H](C(=O)N[C@H](C(=O)O)c4cc(O)cc(O)c4-c4cc3ccc4O)[C@H](O)c3ccc(c(Cl)c3)Oc3cc2cc(c3O[C@@H]2O[C@H](CO)[C@@H](O)[C@H](O)[C@H]2O[C@H]2C[C@](C)(N)[C@H](O)[C@H](C)O2)Oc2ccc(cc2Cl)[C@H]1O [VANCOMYCIN] | – | – | – | – | – | – | – | – | – | – | – | – | – | – | – | – | 2 µg/mL (≈ 1.38 µM) | – | – | 1 µg/mL (≈ 0.69 µM) | Activity (Cell membrane [24]): inactive; Activity (Staphylococcus aureus [25]): inactive; MIC (Staphylococcus aureus [26]): ≥ 8 µg/mL; Activity (Cell membrane [27]): inactive; Activity (Staphylococcus hominis [28]): inactive |
| O=C(CCC(F)(F)F)N(Cc1cc2ccccc2s1)c1cc(-c2cccc(C(F)(F)F)c2)ccc1O | 12.2 µg/mL (≈ 23.4 µM) | 20 | 3 µg/mL (≈ 5.73 µM) | 2 µg/mL (≈ 3.82 µM) | inactive | 13 µg/mL (≈ 24.8 µM) | 6 µg/mL (≈ 11.5 µM) | 20.3 µg/mL (≈ 38.8 µM) | 3 µg/mL (≈ 5.73 µM) | 6 µg/mL (≈ 11.5 µM) | 6 µg/mL (≈ 11.5 µM) | 3 µg/mL (≈ 5.73 µM) | 6 µg/mL (≈ 11.5 µM) | > 16 µg/mL | 3 µg/mL (≈ 5.73 µM) | 12.5 µg/mL (≈ 23.9 µM) | 2 µg/mL (≈ 3.82 µM) | 3280 µg/mL | 6 µg/mL (≈ 11.5 µM) | 2 µg/mL (≈ 3.82 µM) | Activity (Staphylococcus aureus [29]): Active; MIC (Staphylococcus aureus [19]): 3 µg/mL (≈ 5.73 µM); IC50 (HeLa): 13.4 µg/mL (≈ 25.5 µM); selectivity ratio [21]: > 1000; MIC (Staphylococcus aureus [22]): 6 µg/mL (≈ 11.5 µM); MIC (Staphylococcus aureus [23]): 1 µg/mL (≈ 1.91 µM) |
